Earlier results, collected in patent US9492541B2, “Phenylepherine containing dosage form” (SOVEREIGN PHARMACEUTICALS, LLC, priority 2004, dated 2016).

Settings: oral

CNC[C@H](O)c1cccc(O)c1 [phenylepherine]
period over which a single dose provides a therapeutically effective plasma concentration: 2.5 ± 0.7 h
